The source of these data is ChEMBL document CHEMBL4706550, “Design, synthesis and biological activities of piperidine-spirooxadiazole derivatives as α7 nicotinic receptor antagonists” (Eur J Med Chem, 2020).

The target of assay [1] is T1, Neuronal acetylcholine receptor subunit alpha-7 (Homo sapiens, UniProt P36544). Nature of the assay: Antagonist activity at human alpha7 nAChR expressed in Xenopus laevis oocytes assessed as inhibition of Ach-induced current at 30 uM measured at holding potential of -90 mV by two electrode voltage-clamp assay relative to control. It is filed as cell-based. The following applies: Oocyte.
T1 sequence (P36544 whole entry): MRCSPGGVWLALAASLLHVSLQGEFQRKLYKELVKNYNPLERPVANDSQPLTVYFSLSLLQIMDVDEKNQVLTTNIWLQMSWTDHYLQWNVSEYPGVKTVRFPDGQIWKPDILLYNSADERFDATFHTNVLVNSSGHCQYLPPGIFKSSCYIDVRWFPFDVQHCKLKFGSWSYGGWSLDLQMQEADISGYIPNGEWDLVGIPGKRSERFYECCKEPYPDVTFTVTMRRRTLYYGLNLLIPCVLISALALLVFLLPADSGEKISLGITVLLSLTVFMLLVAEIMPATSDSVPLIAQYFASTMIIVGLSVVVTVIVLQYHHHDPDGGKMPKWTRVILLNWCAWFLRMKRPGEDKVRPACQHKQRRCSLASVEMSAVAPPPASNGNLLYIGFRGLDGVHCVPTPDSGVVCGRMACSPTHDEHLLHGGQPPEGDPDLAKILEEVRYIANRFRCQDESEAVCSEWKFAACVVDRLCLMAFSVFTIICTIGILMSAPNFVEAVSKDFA

Assay [2] addresses T1, Neuronal acetylcholine receptor subunit alpha-7. As to the kind of experiment: Antagonist activity at human alpha7 nAChR expressed in Xenopus laevis oocytes assessed as inhibition of Ach-induced current at 100 uM measured at holding potential of -90 mV by two electrode voltage-clamp assay relative to control. It is filed as cell-based. Particulars: Oocyte.
The target in assay [3] is T2, Neuronal acetylcholine receptor; alpha3/beta4 (Rattus norvegicus) (UniProt P04757+P12392). Nature of the assay: Antagonist activity at rat alpha3beta4 nAChR expressed in Xenopus laevis oocytes assessed as inhibition of Ach-induced current at 10 uM measured at holding potential of -90 mV by two electrode voltage-clamp assay relative to control. It is filed as cell-based. The following applies: Oocyte.

The target of assay [4] is T3, Neuronal acetylcholine receptor; alpha4/beta2 (Rattus norvegicus) (UniProt P09483+P12390). Nature of the assay: Antagonist activity at rat alpha4beta2 nAChR expressed in Xenopus laevis oocytes assessed as effect on nAChR current at 10 uM measured at holding potential of -90 mV by two electrode voltage-clamp assay. It is filed as cell-based. Particulars: Oocyte.
For assay [5], the target named is T3, Neuronal acetylcholine receptor; alpha4/beta2 (Rattus norvegicus). Nature of the assay: Antagonist activity at rat alpha4beta2 nAChR expressed in Xenopus laevis oocytes assessed as inhibition of Ach-induced current at 10 uM measured at holding potential of -90 mV by two electrode voltage-clamp assay relative to control. It is filed as cell-based. Particulars: Oocyte.

Assay [6] addresses T1, Neuronal acetylcholine receptor subunit alpha-7. Nature of the assay: Antagonist activity at human alpha7 nAChR expressed in Xenopus laevis oocytes assessed as inhibition of Ach-induced current measured at holding potential of -90 mV by two electrode voltage-clamp assay. It is filed as cell-based, Oocyte.
The target in assay [7] is Neuronal acetylcholine receptor; alpha4/beta2 (Rattus norvegicus, UniProt P09483+P12390). As to the kind of experiment: Antagonist activity at rat alpha4beta2 nAChR expressed in Xenopus laevis oocytes assessed as inhibition of Ach-induced current measured at holding potential of -90 mV by two electrode voltage-clamp assay. It is filed as cell-based, Oocyte.
Sequence of Neuronal acetylcholine receptor; alpha4/beta2 (P09483 whole entry): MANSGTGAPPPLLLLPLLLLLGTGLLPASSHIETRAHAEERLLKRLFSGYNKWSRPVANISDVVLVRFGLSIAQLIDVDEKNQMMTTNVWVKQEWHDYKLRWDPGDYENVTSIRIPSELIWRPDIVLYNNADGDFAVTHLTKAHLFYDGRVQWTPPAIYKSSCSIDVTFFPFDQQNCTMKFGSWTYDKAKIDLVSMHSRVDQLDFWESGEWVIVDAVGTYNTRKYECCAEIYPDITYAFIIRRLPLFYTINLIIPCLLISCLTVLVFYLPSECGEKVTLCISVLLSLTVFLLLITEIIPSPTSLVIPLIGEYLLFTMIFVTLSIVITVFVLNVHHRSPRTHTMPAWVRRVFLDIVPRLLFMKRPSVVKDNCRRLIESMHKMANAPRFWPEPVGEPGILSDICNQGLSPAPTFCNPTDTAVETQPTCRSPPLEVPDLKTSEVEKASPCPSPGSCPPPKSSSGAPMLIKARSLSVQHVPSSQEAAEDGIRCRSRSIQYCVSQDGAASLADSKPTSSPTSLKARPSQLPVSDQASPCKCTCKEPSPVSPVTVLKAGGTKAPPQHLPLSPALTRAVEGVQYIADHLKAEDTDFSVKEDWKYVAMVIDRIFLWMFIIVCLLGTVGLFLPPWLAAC
Sequence of Neuronal acetylcholine receptor; alpha4/beta2 (P12390 whole entry): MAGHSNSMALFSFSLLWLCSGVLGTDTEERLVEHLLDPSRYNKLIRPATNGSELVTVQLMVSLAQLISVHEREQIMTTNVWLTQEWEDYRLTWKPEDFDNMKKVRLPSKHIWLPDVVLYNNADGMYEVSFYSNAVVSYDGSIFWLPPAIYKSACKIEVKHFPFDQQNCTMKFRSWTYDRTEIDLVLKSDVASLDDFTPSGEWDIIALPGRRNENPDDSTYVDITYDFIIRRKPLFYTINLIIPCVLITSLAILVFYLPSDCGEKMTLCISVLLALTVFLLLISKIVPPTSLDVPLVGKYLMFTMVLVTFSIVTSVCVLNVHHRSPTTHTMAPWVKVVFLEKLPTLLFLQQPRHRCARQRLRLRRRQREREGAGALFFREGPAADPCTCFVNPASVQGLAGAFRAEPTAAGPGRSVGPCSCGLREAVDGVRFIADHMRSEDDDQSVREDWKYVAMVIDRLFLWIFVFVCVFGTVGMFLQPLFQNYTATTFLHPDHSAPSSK
Assay [8] addresses T2, Neuronal acetylcholine receptor; alpha3/beta4 (Rattus norvegicus). Nature of the assay: Antagonist activity at rat alpha3beta4 nAChR expressed in Xenopus laevis oocytes assessed as effect on nAChR current measured at holding potential of -90 mV by two electrode voltage-clamp assay. Particulars: Oocyte, dose 10.0 µM. It is filed as cell-based.
Assay [9] can be described thus: Selectivity index, ratio of IC50 for rat alpha4beta2 nAChR expressed in Xenopus laevis oocytes to IC50 for human alpha7 nAChR expressed in Xenopus laevis oocytes. It is filed as cell-based.

Molecules are shown by their SMILES. Calls of active or inactive are those of the source. No cut-off for these calls is given here.

Turning to `Cc1ccc(-c2ccc(C3=NOC4(CCN(Cc5ccccc5)CC4)N3)cc2)cc1`, in [1], the inhibition result was “inactive”. Moreover, the inhibition in assay [2] came to 34.9%.
On to `CN1CCC2(CC1)NC(c1ccc(Br)cc1)=NO2`, for which the inhibition in assay [3] came to 20%; in assay [5] it was 24%; in assay [1] (filed as antagonist), 91.8%; in [2] (filed as antagonist), 97.4%. Moreover, the result in assay [4] and in assay [8] was inactive. Besides, the results for the concentration for half-maximal inhibition (IC50) in [6] and in assay [7] were 5.4 µM and 32 µM, respectively. For the same compound, the Ratio IC50 in [9] stood at 6.
With `c1ccc(CN2CCC3(CC2)NC(c2ccc(-c4ccccc4)cc2)=NO3)cc1`, the inhibition entry in assay [1] was “inactive”. In addition, in assay [2] (filed as antagonist), the inhibition was determined as 71.4%.
As for `c1ccc(CN2CCC3(CC2)NC(c2nccs2)=NO3)cc1`, the inhibition in [1] (filed as antagonist) worked out at 65.1%; in assay [2] (filed as antagonist) it was 94.5%.
Take `CCOC(=O)N1CCC2(CC1)NC(c1ccccc1)=NO2`: in assay [1], the inhibition entry was “inactive”. Also, the inhibition in assay [2] (filed as antagonist) stood at 75.1%.
For the compound `COc1cc(-c2ccc(C3=NOC4(CCN(C)CC4)N3)cc2)ccn1`, the concentration for half-maximal inhibition (IC50) in [6] came to 3.3 µM. For the same compound, the inhibition in assay [1] (filed as antagonist) worked out at 86.1%; in [2] (filed as antagonist), 93.4%.
Take `Nc1cccc(-c2ccc(C3=NOC4(CCN(Cc5ccccc5)CC4)N3)cc2)c1`: the results for the inhibition in [1] (filed as antagonist) and in assay [2] (filed as antagonist) were 60.1% and 93.5%, respectively.
`c1ccc(CN2CCC3(CC2)NC(c2cc4ccccc4cn2)=NO3)nc1`: the values for the inhibition in assay [1] and in [2] (filed as antagonist) were 37.9% and 80%, respectively.
For `COc1cc(-c2ccc(C3=NOC4(CCN(Cc5ccccc5)CC4)N3)cc2)ccn1`, the values for the inhibition in assay [1] (filed as antagonist) and in [2] (filed as antagonist) were 54.7% and 89.9%, respectively.
As to `Fc1ccc(CN2CCC3(CC2)NC(C2CC2)=NO3)cc1`, the inhibition in [1] (filed as antagonist) was 52.8%; in [2] (filed as antagonist), 83.9%.
In the case of `COc1ccc(C2=NOC3(CCN(Cc4ccccc4)CC3)N2)cc1`, in [1], the inhibition result was “inactive”. Also, the inhibition in assay [2] (filed as antagonist) amounted to 79.6%.
On to `c1ccc(CN2CCC3(CC2)NC(c2cccs2)=NO3)cc1`, for which, in assay [1], the inhibition result was “inactive”. Besides, in assay [2] (filed as antagonist), the inhibition was 74.9%.
Turning to `Brc1ccc(C2=NOC3(CCN(Cc4ccccc4)CC3)N2)cn1`, the inhibition in assay [1] (filed as antagonist) stood at 63.7%; in assay [2] (filed as antagonist) it was 90.3%.
Take `COc1cccc(-c2ccc(C3=NOC4(CCN(C)CC4)N3)cc2)c1`: the inhibition in assay [1] (filed as antagonist) was 81.3%; in [2] (filed as antagonist), 93.2%.
`Cc1cccc(-c2ccc(C3=NOC4(CCN(Cc5ccccc5)CC4)N3)cc2)c1`: the inhibition in [1] is 30%; in assay [2] (filed as antagonist), 80.1%.
Taken in the same sequence, the figures for `c1ccc(CN2CCC3(CC2)NC(c2ccccn2)=NO3)cc1` were “inactive” and 68.7%.
For `c1ccc(C2=NOC3(CCN(Cc4ccccn4)CC3)N2)cc1`, in assay [1], the inhibition result is “inactive”. Further, in [2] (filed as antagonist), the inhibition is 70.2%.
Take `Cc1ccccc1-c1ccc(C2=NOC3(CCN(Cc4ccccc4)CC3)N2)cc1`: in [1], the inhibition result was “inactive”. Also, in [2] (filed as antagonist), the inhibition is 72%.
The like results for `COc1cc(OC)cc(-c2ccc(C3=NOC4(CCN(Cc5ccccc5)CC4)N3)cc2)c1` were, in that order, “inactive” and 73%.
As to `FC(F)(F)c1ccc(-c2ccc(C3=NOC4(CCN(Cc5ccccc5)CC4)N3)cc2)cc1`, the inhibition result in assay [1] was “inactive”. Moreover, in assay [2], the inhibition came to 36.5%.
Take `COc1cccc(-c2ccc(C3=NOC4(CCN(Cc5ccccc5)CC4)N3)cn2)c1`: the inhibition result in assay [1] was “inactive”. Moreover, the inhibition in assay [2] (filed as antagonist) amounted to 58.2%.
As for `c1cc(CN2CCC3(CC2)NC(c2nccs2)=NO3)ccn1`, the inhibition entry in assay [1] was “inactive”. Also, the inhibition in assay [2] turned out to be 18.8%.
Turning to `c1ccc(CN2CCC3(CC2)NC(c2nccs2)=NO3)nc1`, the inhibition in [1] worked out at 39.3%; in assay [2] (filed as antagonist), 80%.
On to `CN(C)c1cccc(-c2ccc(C3=NOC4(CCN(Cc5ccccc5)CC4)N3)cc2)c1`, for which the inhibition in [1] came out at 39.5%; in assay [2] (filed as antagonist), 81.1%.
Consider `Nc1cccc(-c2ccc(C3=NOC4(CCN(Cc5ccccc5)CC4)N3)cn2)c1`, for which the inhibition is 61.8% in assay [1] (filed as antagonist) and 87.2% in assay [2] (filed as antagonist).
On to `CC(C)(C)OC(=O)N1CCC2(CC1)NC(c1ccccc1)=NO2`, for which, in assay [1], the inhibition entry is “inactive”. For the same compound, the inhibition in assay [2] (filed as antagonist) was determined as 73.5%.
In the case of `CCOC(=O)N1CCC2(CC1)NC(c1ccc(Br)cc1)=NO2`, in assay [1], the inhibition result is “inactive”. In addition, the inhibition in assay [2] (filed as antagonist) is 58.1%.
With `CN1CCC2(CC1)NC(c1nccs1)=NO2`, the inhibition in [1] (filed as antagonist) stood at 69.7%; in [2] (filed as antagonist) it was 87.4%.
In the case of `COc1cccc(-c2ccc(C3=NOC4(CCN(Cc5ccccc5)CC4)N3)cc2)c1`, the inhibition in assay [1] (filed as antagonist) came out at 76.9%; in assay [2] (filed as antagonist), 95.6%.
For `c1ccc(CN2CCC3(CC2)NC(C2CC2)=NO3)cc1`, the inhibition in [1] (filed as antagonist) was 52.2%; in [2] (filed as antagonist), 83.9%.
For the compound `FC(F)(F)c1cccc(-c2ccc(C3=NOC4(CCN(Cc5ccccc5)CC4)N3)cc2)c1`, the inhibition entry in assay [1] was “inactive”. Moreover, the inhibition in assay [2] (filed as antagonist) was determined as 67%.
Turning to `CC(C)c1cccc(-c2ccc(C3=NOC4(CCN(Cc5ccccc5)CC4)N3)cc2)c1`, the inhibition result in [1] was “inactive”. Besides, the inhibition in assay [2] is 26.2%.
Turning to `CN1CCC2(CC1)NC(c1ccc(Br)nc1)=NO2`, the values for the inhibition in assay [1] (filed as antagonist) and in [2] (filed as antagonist) were 44.1% and 83.4%, respectively.
Regarding `c1ccc(CN2CCC3(CC2)NC(c2ccc(-c4cccnc4)cc2)=NO3)cc1`, the inhibition came out at 65% in assay [1] (filed as antagonist) and 81.1% in assay [2] (filed as antagonist).
For `c1ccc(CN2CCC3(CC2)NC(c2ccc(-c4ccncc4)cc2)=NO3)cc1`, the inhibition result in assay [1] is “inactive”. Further, the inhibition in assay [2] (filed as antagonist) was determined as 75.2%.
Turning to `Oc1cccc(-c2ccc(C3=NOC4(CCN(Cc5ccccc5)CC4)N3)cc2)c1`, the values for the inhibition in assay [1] (filed as antagonist) and in assay [2] (filed as antagonist) were 59% and 80.4%, respectively.
Take `c1ccc(CN2CCC3(CC2)NC(c2cc4ccccc4cn2)=NO3)cc1`: the inhibition in assay [1] (filed as antagonist) is 76.6%; in assay [2] (filed as antagonist), 91.1%.
Consider `CN1CCC2(CC1)NC(c1ccc(-c3cccc(N)c3)cc1)=NO2`, for which the inhibition entry in assay [1] was “inactive”. For the same compound, the inhibition in assay [2] (filed as antagonist) was 78.2%.
Turning to `CN1CCC2(CC1)NC(c1ccccc1)=NO2`, the 50% inhibitory concentration (IC50) in [6] came to 4.4 µM. Further, the results for the inhibition in [1] (filed as antagonist) and in assay [2] (filed as antagonist) were 90.4% and 96.7%, respectively.
On to `COc1ccc(C2=NOC3(CCN(Cc4ccccc4)CC3)N2)c(OC)c1`, for which the inhibition entry in assay [1] is “inactive”. In addition, the inhibition in assay [2] (filed as antagonist) came to 79.1%.
Taken in the same sequence, the figures for `Fc1ccc(C2=NOC3(CCN(Cc4ccccc4)CC3)N2)cc1` were “inactive” and 78.3%.
Taken in the same sequence, the figures for `c1ccc(CN2CCC3(CC2)NC(c2n[nH]c4ccccc24)=NO3)cc1` were “inactive” and 69.8%.
Taken in the same sequence, the figures for `c1ccc(CN2CCC3(CC2)NC(c2ccc(-c4cccs4)cc2)=NO3)cc1` were “inactive” and 71.1%.
Consider `Brc1ccc(C2=NOC3(CCN(Cc4ccccc4)CC3)N2)cc1`, for which, in assay [6], the half-maximal inhibitory concentration (IC50) was determined as 6 µM. For the same compound, the inhibition in assay [1] (filed as antagonist) turned out to be 90.8%; in [2] (filed as antagonist) it was 91.5%.
Regarding `c1ccc2cc(C3=NOC4(CCN(Cc5ccncc5)CC4)N3)ncc2c1`, the inhibition result in assay [1] is “inactive”. Also, in assay [2] (filed as antagonist), the inhibition was 58.2%.
With `c1ccc(CN2CCC3(CC2)NC(c2ccccc2)=NO3)cc1`, the half-maximal inhibitory concentration (IC50) in assay [6] is 13.7 µM. The inhibition in [1] (filed as antagonist) is 70.4%; in [2] (filed as antagonist), 98.2%.
For the compound `COc1ccc(-c2ccc(C3=NOC4(CCN(Cc5ccccc5)CC4)N3)cc2)cc1`, the inhibition result in [1] was “inactive”. The inhibition in assay [2] (filed as antagonist) came out at 40.5%.
For the compound `Clc1ccc(-c2ccc(C3=NOC4(CCN(Cc5ccccc5)CC4)N3)cc2)cc1`, the inhibition result in [1] was “inactive”. Also, the inhibition in assay [2] (filed as antagonist) amounted to 52.8%.
Turning to `Fc1cccc(C2=NOC3(CCN(Cc4ccccc4)CC3)N2)c1`, the inhibition is 65.9% in assay [1] (filed as antagonist) and 83.1% in assay [2] (filed as antagonist).
As for `Cc1cccc(C2=NOC3(CCN(Cc4ccccc4)CC3)N2)c1`, the inhibition entry in assay [1] was “inactive”. For the same compound, the inhibition in assay [2] (filed as antagonist) came to 75.4%.
Taken in the same sequence, the figures for `Fc1ccc(-c2ccc(C3=NOC4(CCN(Cc5ccccc5)CC4)N3)cc2)cc1` were “inactive” and 42.4%.
Regarding `Clc1ccc(C2=NOC3(CCN(Cc4ccccc4)CC3)N2)cc1`, the inhibition was found to be 77.4% in assay [1] (filed as antagonist) and 90.7% in assay [2] (filed as antagonist).
